Assay [1] has as its target recombinant human SGK-1 enzyme (Homo sapiens, UniProt O00141). Kind of assay: SGK-1 enzymatic activity assay (substrate phosphorylation, fluorescein-labeled peptide, lab-chip). The format is biochemical. The conditions noted are these: ATP 10 μM, peptide substrate 1 μM, 60 min at 37° C., read-out: IC50 for inhibition of SGK-1 enzymatic activity. The source says: The synthesized fluorescent labeled peptide substrate contained (5(6)-Carboxyfluorescein)-RPRAATF-NH2. The phosphorylated substrate peptide and non-phosphorylated substrate peptide were separated with caliper life science's lab-chip technology based on a micro fluidics method. All fluid flow was established on the chip by applying a vacuum of a few psi to the waste well transporting fluid from various sources through interconnecting channels. Because the phosphoryl group is doubly negatively charged, under the pressure-driven hydrodynamic flow and the voltage-driven flow within the electric field, the fluorescent labeled peptide substrate and its phosphorylation product appear at different times in the detection window to the detection point. Substrate turnover can thus be determined as the ratio of the product peak area and the sum of substrate peak area and product peak area.
The enzyme reaction was carried out in a buffer containing 25 mM Tris-HCl (pH 7.4), 5 mM MgCl2, 2 mM MnCl2, 2 mM DTT, and 0.03% bovine serum albumine. The enzyme was pre-incubated with the test compound for 30 min at 24° C. The kinase reaction was initiated by addition of the substrate mixture containing the peptide substrate (final concentration 1 μM) and ATP (final concentration 10 μM). After 60 min incubation at 37° C., the enzyme reaction was terminated by adding a buffer containing 100 mM Hepes (pH 7.4) and 35 mM EDTA.
For the determination of the compound dose response, a 10 mM DMSO stock solution was diluted and tested in a ten-point, three-fold dilution series run in duplicate beginning at 30 μM final concentration. Data were analyzed using a four-parameter curve fit with a fixed minimum and maximum experimentally defined as the average positive and negative controls on each plate.

For assay [2], the system named is collagen type X (Col10a1) expression in ATDC5 cells. Kind of assay: Chondrocyte hypertrophic differentiation in mouse chondrogenic ATDC5 cells (collagen type X expression). In kind it is cell-based. The conditions noted are these: 336 h, 14 days differentiation with BMP2 and T3, Col10a1 by quantitative real-time PCR, read-out: IC50 for the inhibition of collagen type X expression. The source says: The ATDC5 cell assay was used as in vitro model to determine the effects of the compounds of the invention on chondrocyte hypertrophic differentiation by monitoring the expression levels of collagen type X (Col10a1) as specific marker of chondrocyte hypertrophy.
Background: ATDC5 cells are a clonal mouse embryonic cell line derived from multipotent AT805 teratocarcinoma cells (Atsumi T, Miwa Y, Kimata K, Ikawa Y.; A chondrogenic cell line derived from a differentiating culture of AT805 teratocarcinoma cells. Cell Differ. Dev. 30 (1990), 109-116). […] Chondrogenic differentiation can be shown by measuring the expression of the cartilage main collagen (Col2a1) and aggrecan (AGC1) and glycosaminoglycan-staining with Alcian Blue within two weeks after insulin-triggered differentiation, and hypertrophic differentiation can be monitored by the expression of collagen type X (Col10a1), a specific marker of chondrocyte hypertrophy within 21 days of in vitro culture. […] SGK-inhibitors were added to differentiating ATDC5 cells for 14 days and Col10a1 gene expression was quantified to determine effects on chondrocyte hypertrophic differentiation. […]
After two weeks of cell culture, RNA was isolated and converted to cDNA for determination of gene expression by quantitative real-time PCR. […] RNA was isolated in 30 μl of pure water and the RNA content measured by UV-spectroscopy (Nanodrop, Peqlab). […]
For orientation: In qPCR the cycle at which signal appears reflects the starting amount.

Assay [3] deals with SGK-1 dependent activation of ENaC-currents in A6 cell monolayers. Kind of assay: Functional electrophysiological assay, SGK-1 dependent activation of ENaC currents in A6 cell monolayers (Ussing chamber). The conditions noted are these: Xenopus laevis, 0.75 h, hypoosmotic shock 45 min, read-out: IC50 for inhibition of ΔI'sc (amiloride-sensitive ENaC-dependent short circuit current). The format is cell-based. How it is done:
Materials and methods for Ussing chamber measurement of A6 cells: The renal Xenopus laevis cell line A6 (Rafferty, K. A.; Mass culture of amphibia cells: methods and observations concerning stability of cell type. In: Biology of Amphibian Tumors, edited by M. Mizell. New York: Springer-Verlag, 1969, p. 52-81) was used for the experiments. Cells were grown in cell culture flasks (Nunc) at 28° C. in a humidified atmosphere with 4% CO2. The culture medium contained a 7:3 mixture of Leibovitz's L-15 (Sigma-Aldrich)/Coon's (Sigma-Aldrich) media supplemented with 10% fetal bovine serum (PAA), 20% sterile water, 25 mM NaHCO3 (Sigma-Aldrich), 100 U/ml penicillin (PAA) and 100 μg/ml streptomycin (PAA). The osmolality of the medium was 270 mOsml/kg H2O). […] Filters with confluent A6 cells were transferred into a continuously perfused Ussing-chamber, and electrophysiological parameters were measured under open circuit conditions using a transepithelial clamp amplifier (EP Design). Short circuit current (I′sc) was calculated by Ohm's law. […]
To evaluate the effects of SGK inhibitors on ENaC-mediated transepithelial currents, […] monolayers were first equilibrated for 5 min with isoosmotic Ringer-solution from both the luminal and basolateral side of the cell layer. […] ENaC-dependent I′sc after the hypoosmotic shock (I′schypo) was determined by application of amiloride at the end of the experiment. […]

recombinant human SGK-1 enzyme, sequence (O00141 whole entry, looked up): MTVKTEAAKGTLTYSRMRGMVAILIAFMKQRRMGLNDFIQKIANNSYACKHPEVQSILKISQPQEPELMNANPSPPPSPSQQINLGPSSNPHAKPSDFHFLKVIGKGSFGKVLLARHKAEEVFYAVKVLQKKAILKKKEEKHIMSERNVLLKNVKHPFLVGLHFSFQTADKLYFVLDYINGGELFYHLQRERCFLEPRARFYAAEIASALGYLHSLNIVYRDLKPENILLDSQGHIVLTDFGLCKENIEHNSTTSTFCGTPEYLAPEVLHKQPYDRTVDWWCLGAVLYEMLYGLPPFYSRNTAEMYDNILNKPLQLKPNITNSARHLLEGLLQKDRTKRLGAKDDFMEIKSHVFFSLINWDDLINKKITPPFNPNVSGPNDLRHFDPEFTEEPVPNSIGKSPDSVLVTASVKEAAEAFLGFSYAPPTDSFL

One may read the IC50 as the concentration needed to halve the response being measured. As for `Cc1nn(C)c(Cl)c1S(=O)(=O)Nc1ccc(-c2cnc3c(NS(=O)(=O)c4c(C)nn(C)c4Cl)n[nH]c3n2)cc1` [Example 43, 5-Chloro-N-[4-[3-[(5-chloro-1,3-dimethyl-pyrazol-4-yl)sulfonylamino]-1H-pyrazolo[3,4-b]pyrazin-6-yl]phenyl]-1,3-dimethyl-pyrazole-4-sulfonamide], the IC50 in assay [1] amounted to 1.05 µM.

Take `Nc1n[nH]c2nc(-c3ccc(NS(=O)(=O)c4cc(Cl)ccc4F)c(F)c3)cnc12` [Example 6, N-[4-(3-Amino-1H-pyrazolo[3,4-b]pyrazin-6-yl)-2-fluoro-phenyl]-5-chloro-2-fluoro-benzenesulfonamide]: the IC50 in assay [2] was found to be 0.559 µM.

In the case of `Nc1n[nH]c2nc(-c3ccc(NS(=O)(=O)c4ccc(F)cc4Cl)cc3)cnc12` [Example 61, N-[4-(3-Amino-1H-pyrazolo[3,4-b]pyrazin-6-yl)-phenyl]-2-chloro-4-fluoro-benzenesulfonamide], the IC50 in assay [1] was 0.018 µM.

As for `Nc1n[nH]c2nc(-c3ccc(NS(=O)(=O)c4cccc(Cl)c4Cl)cc3)cnc12` [Example 1, N-[4-(3-Amino-1H-pyrazolo[3,4-b]pyrazin-6-yl)phenyl]-2,3-dichloro-benzenesulfonamide], the IC50 in assay [3] came out at 2.1 µM.

Take `N#Cc1ccc(F)c(S(=O)(=O)Nc2ccc(-c3cnc4c(N)n[nH]c4n3)cc2)c1` [Example 45, N-[4-(3-Amino-1H-pyrazolo[3,4-b]pyrazin-6-yl)-phenyl]-5-cyano-2-fluoro-benzenesulfonamide]: the IC50 in assay [1] came to 0.047 µM.

As to `Nc1n[nH]c2nc(-c3ccc(NS(=O)(=O)c4cc(F)cc(F)c4Cl)cc3)cnc12` [Example 60, N-[4-(3-Amino-1H-pyrazolo[3,4-b]pyrazin-6-yl)-phenyl]-2-chloro-3,5-difluoro-benzenesulfonamide], the IC50 in assay [1] turned out to be 0.031 µM.

With `O=S(=O)(Nc1ccc(-c2cnc3c(NS(=O)(=O)c4cc(Cl)c(F)cc4F)n[nH]c3n2)cc1)c1cc(Cl)c(F)cc1F` [Example 42, 5-Chloro-N-[4-[3-[(5-chloro-2,4-difluoro-phenyl)sulfonylamino]-1H-pyrazolo[3,4-b]pyrazin-6-yl]phenyl]-2,4-difluoro-benzenesulfonamide], in assay [1], the IC50 is 0.413 µM.

Values taken from patent publication US9174993B2, “N-[4-(1H-pyrazolo[3,4-b]pyrazin-6-yl)-phenyl]-sulfonamides and their use as pharmaceuticals” (SANOFI, priority 2011, dated 2015).
